In test [1] the target is Neuraminidase (Influenza A virus (A/Puerto Rico/8/1934(H1N1)), UniProt P03468). The test can be described thus: Inhibition of neuraminidase of influenza A/PR/8/34(H1N1).
In test [2] the test system is unidentified influenza virus. The test can be described thus: Concentration required for 50% inhibition of influenza A/WS/33 by plaque reduction assay. It is filed as functional, organism-based. In general terms: Plaque reduction counts the foci of infection that form in a cell layer.

What is called IC50 is the concentration that inhibits the measured activity by half. The low end stands for greater potency in that assay, the high end for weaker potency in that assay.

Sequence of Neuraminidase (Influenza A virus (A/Puerto Rico/8/1934(H1N1)), UniProt P03468) (P03468 whole entry): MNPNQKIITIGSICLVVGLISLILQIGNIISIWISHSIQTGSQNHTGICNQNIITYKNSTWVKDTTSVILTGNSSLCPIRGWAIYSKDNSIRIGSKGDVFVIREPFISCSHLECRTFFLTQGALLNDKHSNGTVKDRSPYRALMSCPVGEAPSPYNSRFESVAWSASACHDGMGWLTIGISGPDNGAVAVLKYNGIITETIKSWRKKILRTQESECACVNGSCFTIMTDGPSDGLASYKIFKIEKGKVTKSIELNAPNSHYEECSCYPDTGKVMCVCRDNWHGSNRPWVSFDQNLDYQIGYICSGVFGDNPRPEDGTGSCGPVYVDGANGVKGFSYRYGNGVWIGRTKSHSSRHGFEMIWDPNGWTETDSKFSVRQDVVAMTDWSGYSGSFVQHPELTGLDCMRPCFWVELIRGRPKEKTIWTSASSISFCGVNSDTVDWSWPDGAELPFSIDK

For `CC(=O)N[C@@H]1[C@@H](N)CC(C(=O)O)=C[C@H]1Oc1ccccc1`, the IC50 in test [1] was determined as 530 nM. In the case of `CCCO[C@@H]1C=C(C(=O)O)C[C@H](N=C(N)NC)[C@H]1NC(C)=O`, the 50% inhibitory concentration (IC50) in test [2] was 1.6 nM; in test [1], 4.6 nM. In test [1], `CC(=O)N[C@@H]1[C@@H](N)CC(C(=O)O)=C[C@H]1OC1CCCCC1` gave an IC50 of 60 nM. For the compound `CCCO[C@@H]1C=C(C(=O)O)C[C@H](N)[C@H]1NC(=O)C(F)(F)F`, the figures for the IC50 in test [2] and in test [1] were 22000 nM and 1400 nM, respectively. Take `CCCO[C@@H]1C=C(C(=O)O)C[C@H](N)[C@H]1NS(C)(=O)=O`: in test [1], half-maximal inhibition (IC50) required 25000 nM. `CC(=O)N[C@@H]1[C@@H](N)CC(C(=O)O)=C[C@H]1OCCC(F)(F)F` showed a half-inhibitory concentration (IC50) in test [1] of 225 nM. The same measure, in the same setting: next, `C=CCO[C@@H]1C=C(C(=O)O)C[C@H](N)[C@H]1NC(C)=O`: 2200 nM; `CCCO[C@@H]1C=C(C(=O)O)C[C@H](NC=N)[C@H]1NC(C)=O`: 140 nM; `CCCO[C@@H]1C=C(C(=O)O)C[C@H](N)[C@H]1NC(=O)CC`: 1500 nM. Turning to `CC(=O)N[C@@H]1[C@@H](N)CC(C(=O)O)=C[C@H]1OC1CCCC1`, the IC50 in test [1] came to 22 nM. As for `CCCO[C@@H]1C=C(C(=O)O)C[C@H](N)[C@H]1NC(C)=O`, the half-maximal inhibitory concentration (IC50) in test [2] was determined as 44000 nM; in test [1] it was 130 nM. For the compound `COCO[C@@H]1C=C(C(=O)O)C[C@H](N)[C@H]1NC(C)=O`, in test [1], the IC50 amounted to 2000 nM.

Regarding `CCCO[C@@H]1C=C(C(=O)O)C[C@H](N=C(N)N)[C@H]1NC(C)=O`, the IC50 in test [2] worked out at 44 nM; in test [1] it was 1.8 nM.

Values taken from ChEMBL document CHEMBL1130481, “Structure-activity relationships of carbocyclic influenza neuraminidase inhibitors” (Bioorg Med Chem Lett, 1997).
